We go through four compounds from patent US20100136537A1, “PHOTORECEPTOR PRECURSOR CELLS” (THE REGENTS OF THE UNIVERSITY OF MICHIGAN, priority 2006, published 2010).

Entries after “also recorded” stand apart in the source; their conditions may differ.

Data set [1] relates to photoreceptors. To be noted: MNU 60 mg/kg i.p.; cited from earlier work.
The test system of data set [2] is photoreceptors. The experiment in a line: MNU-induced photoreceptor degeneration in adult C57Bl/6 mice (TUNEL, immunostaining, ERG). The format is in vivo, mouse. The method, then: Preparation of Donor Cells and Recipients. Donor cells were prepared from P0-P2 retinas of the neural retina leucine zipper (Nrl)-GFP transgenic mice (See Example 1). Nrl is a basic motif-leucine zipper transcription factor that is preferentially expressed in rod photoreceptors and required for rod differentiation (See, e.g., Swaroop et al., Proc Natl Acad Sci USA. 1992; 89:266-270; and Mears et al., Nat Genet. 2001; 29:447-452). The Nrl promoter directed expression of enhanced green fluorescent protein (EGFP) specifically to new-born rod precursors and mature rods in the Nrl-GFP transgenic mouse. Eyes were enucleated, and the neural retinas dissected and dissociated with a Papain-Protease-DNase solution. N-methyl-N-nitrosourea (MNU; Sigma, St. Louis, Mo.), an alkylating agent that induces photoreceptor degeneration by forming 7-methyldeoxyguanosine DNA adducts in the nuclei of photoreceptors, was administered at a dose of 60 mg/kg to adult C57B1/6 mice by intraperitoneal injection 7 days before transplantation (See, e.g., Doonan et al., J Neurosci. 2003; 23:5723-5731; Ogino et al., Toxicol Pathol. 1993; 21:21-25; Yuge et al., In Vivo. 1996; 10:483-488).
Tissue Processing. Two or four weeks after surgery, the animals were perfused transcardially with 4% paraformaldehyde (Merck, Darmstadt, Germany) in 0.1 M phosphate buffer after sedation with ketamine (15 mg/kg). Eyes were removed and immersion fixed with 4% paraformaldehyde at 4° C. overnight and then in 25% sucrose-PBS to cryoprotect. The specimens were embedded in an optimal cutting temperature compound (Miles, Elkhart, Ind.) and consecutive 12-μm frozen sections were sliced on a cryostat.
Immunofluorescence. […]
Electrophysiology. […] Animals were placed on a regulated heating pad under dim red illumination and electroretinograms (ERGs) were recorded with a gold loop electrode placed on the corneal surface maintained with 3% methylcellulose gel. […] The amplitude of the a-wave was measured from the prestimulus baseline to the a-wave trough. […]

Data set [3] concerns chondroitin sulfate proteoglycans (CSPG). The experiment in a line: CS-56 staining of glial scar after subretinal injection with or without ChABC. To be noted: ChABC 0.025 U/μl, 1 μl subretinal, MNU-treated mice. The format is in vivo, mouse. The method, then: Transplantation Procedure. One μl of dissociated Nrl-GFP+ photoreceptor cell suspension (1.0×10^5 cells/μl each) without or with chondroitinase ABC (ChABC) (0.025 U/μl, Wako, Tokyo, Japan) (Nrl group, Nrl/ChABC group, respectively) or 1 μl of PBS (sham group) was drawn into a tapered glass pipette connected to a modified tube and injected through the sclera into the subretinal space. The procedure was performed under surgical microscope.
Immunofluorescence. Sections were washed in PBS, preincubated with a blocking solution (containing 20% skim milk and 0.3% Triton X-100 in PBS) for 30 minutes, and then incubated overnight at 4° C. with primary antibodies diluted in a blocking solution (containing 5% skim milk and 0.3% Triton X-100 in PBS). The primary antibodies and working dilutions were as follows: mouse and rabbit anti-GFP (1:500, Molecular Probes, Eugene, Oreg.), mouse monoclonal CS-56 IgM antibody (1:200, Sigma) that reacts specifically with chondroitin sulfate containing proteoglycans, and anti-vesicular glutamate transporter 1 (VGluT1; 1:100, Chemicon, Hampshire, UK), a marker for active presynaptic formation (See, e.g., Fujiyama et al., J Comp Neurol. 2003; 465:234-249). Sections were incubated for 90 minutes with secondary antibodies diluted 1:500 in PBS containing 5% skim milk and 0.3% Triton X-100. […]

The test system of a further data set is CEP290. To be noted: previous studies; cited from earlier work.
The test system of data set [4] is NRL. As to the kind of experiment: NRL expression in newborn rat retinal cell cultures (immunoblot). It counts as cell-based. The method, then: Primary cultures of new-born rat retinal cells and enriched adult porcine photoreceptors were prepared as described (See Traverso et al., (2003) Investig. Ophthalmol. Vis. Sci. 44, 4550-4558). For newborn rat retinal cultures, rat pups were anesthetized and decapitated, the retinas dissected into CO2-independent Dulbecco's modified Eagle's medium and chopped into small fragments. The fragments were washed twice in Ca/Mg-free PBS and then digested in PBS containing 0.1% papain for 25 min at 37° C. Tissue was dissociated by repeated passage through flame polished Pasteur pipettes, then seeded into tissue culture plates precoated with laminin, in Neurobasal A medium (Invitrogen) containing 2% FBS. After 48 h, medium was changed to a chemically defined formula (Neurobasal A supplemented with B27) for a further 48 h, and then treated.
Experimental Treatments and Immunochemistry. […] RA was added to test wells (1, 5, 10, 20, and 40 μM, stock solution prepared in Me2SO, 10 μl/well).
(§1) Protein Expression Analysis.
(In general: A western blot detects proteins with antibodies after separation by electrophoresis.)

Data set [5] has as its system mouse Nrl promoter. As to the kind of experiment: Nrl promoter-luciferase assay in HEK293 cells. To be noted: dose-dependent response. The format is cell-based. The text has this: (§2) Plasmid Constructs. DNA fragments of 2.5 kb (Nl), 1.2 kb (Nm), and 200 by (Ns) from the 5′-flanking region of the mouse Nrl promoter (GENBANK: AY526079; (See Akimoto et al., (2006) Proc. Natl. Acad. Sci. U.S.A. 103, 3890-3895) were amplified and cloned into pGL3-basic vector (Promega, Madison, Wis.) in-frame with the luciferase reporter gene. The following site-directed mutants of the Nrl promoter were generated from pGL3-Nl using the QUICKCHANGE site-directed mutagenesis kit (Stratagene, La Jolla, Calif.) and sequence-verified: pGL3-Nl-mutIII-1, pGL3-Nl-mutIII-2, and pGL3-Nl-mutII-1, containing deletion of the putative RAREs at positions −781 to −767, −709 to −700, and −453 to −443, respectively.
Transient transfection of HEK293 (ATCC CRL-1573) cells was performed using LIPOFECTAMINE (Invitrogen) according to the manufacturer's instructions. The wild type and mutant Nrl promoter-luciferase constructs, and pCMV-β-gal were added to the cells at a concentration of 0.1 μg and 0.05 μg, respectively. After 3 h, 100 μl of Dulbecco's modified Eagle's medium with 0 or 500 nM at RA was added to each well. Cells were harvested after 24 h in 100 μl of GLO lysis buffer (Promega), and luciferase activity was measured.

Data set [6] concerns NRL. The experiment in a line: NRL expression in serum-starved Y79 cells (immunoblot, Northern blot). The format is cell-based, human. To be noted: serum-starved Y79 cells, 10 μM RA. The procedure: Cell Culture. Y79 human retinoblastoma cells (ATCC HTB 18) and HEK293 (ATCC CRL-1573) were maintained in RPMI 1640 and Dulbecco's modified Eagle's medium, respectively, under standard conditions with 15% (v/v) fetal bovine serum (FBS), penicillin G (100 units/ml), and streptomycin (100 μg/ml) at 37° C. and 5% CO2. For serum starvation and RA treatment experiments, Y79 cells (5×10^4) were cultured in the presence or absence of the serum (same batch of serum was used in all the experiments), at RA, 9-cis-RA, cycloheximide (CHX), and 4-(E-2-(5,6,7,8-tetrahydro-5,5,8,8-tetramethyl-2-naphthalenl)-1-propenyl) benzoic acid (TTNPB) at indicated concentrations. Me2SO or ethanol was added to Y79 cells in lieu of the soluble factors as negative control.
For protein synthesis inhibition experiments, Y79 cells were serum-starved for 24 h, and then simultaneously treated with RA and CHX for 8 or 24 h. NRL expression was analyzed by immunoblotting. In another set of experiments, serum-starved Y79 cells were first incubated with RA alone for 8 or 24 h and then CHX was added. Cell extracts were then analyzed 24 h later for examining NRL expression by immunoblotting.
as §1

The test system of data set [7] is mouse Nrl promoter. The experiment in a line: Nrl promoter-luciferase assay in serum-deprived Y79 cells. It counts as cell-based, human. To be noted: pGL3-NI and pGL3-Nm constructs (with putative RAREs), 10 μM RA, 24 h.
Text: as §2
Transient Transfection and Luciferase Assay. Transient transfection of Y79 cells was performed using FUGENE 6 reagent (Roche Diagnostics, Indianapolis, Ind.). Prior to transfection, cells were serum-starved 24 h in OPTI-MEM (Invitrogen), diluted to 1.5×10^5 cells in 250 μl and seeded into 24-well plates. Transfection was performed with 0.5 μg of promoter-luciferase construct and 1.5 μl of FUGENE 6. […] Luciferase activity was measured using the Luciferase Assay System (Promega, Madison, Wis.). Experiments were repeated at least three times, and the luciferase activity was calculated as a fold change from the base line luciferase activity obtained in the presence of vector only.

For data set [8], the system named is NRL. The experiment in a line: NRL expression in adult pig photoreceptor cultures (immunoblot, immunocytochemistry). To be noted: 24 h.

For `CN(N=O)C(N)=O` [MNU, N-methyl-N-nitrosourea], the “time to apoptosis in all photoreceptors after injection” value with photoreceptors [1] is not above 1 week. Moreover, the “dark-adapted ERG response” value in the data set with photoreceptors [2] (1 week after single i.p. MNU 60 mg/kg) is reported as “does not detect a response; also recorded: no responses were detectable”. Besides, the “state of outer nuclear layer / photoreceptor layer” value in the data set with photoreceptors [2] (1 week after single i.p. MNU 60 mg/kg, VGluT1 and Cytox blue staining) was “completely destroyed; also recorded: essentially destroyed”. In addition, the “TUNEL labeling of retina” value in the data set on photoreceptors [2] (2 days after single i.p. MNU 60 mg/kg) is reported as “nuclear labeling in the majority of the photoreceptor cells”.
With chondroitinase ABC [ChABC], the “degradation of CSPG in the ECM of the glial scar at the injection site (CS-56 staining)” value in data set [3] is given as “substantially, if not completely, degraded”.
`COC(=O)Nc1nc2ccc(C(=O)c3cccs3)cc2[nH]1` [nocodazole]: the “centrosomal localization of CEP290 after microtubule depolymerization” value with CEP290 was “does not alter centrosomal localization of CEP290”.
`CC1=C(/C=C/C(C)=C/C=C/C(C)=C/C(=O)O)C(C)(C)CCC1` [at RA]: the toxicity in culture result in the data set with NRL [4] (doses above 5-20 μM (40 μM RA), newborn rat retina cells) is recorded as “some toxicity; also recorded: toxic for cell survival”. For the same compound, the “RA concentration giving maximal effects on NRL expression” value lay in the range of 5 to 20 µM with NRL [4] (newborn rat retinal cultures, 24 h) and 5 to 20 µM with NRL [8]. In addition, the “at RA concentration of maximum effect on pGL3-Nl luciferase activity” value in the data set on mouse Nrl promoter [5] was 500 nM. The “incubation time after which an increase in NRL protein was observed” value in the data set with NRL [6] came out at 8 h. In the data set on mouse Nrl promoter [7], the “increase in luciferase activity” value is on record as more than 2 fold.
